# Laboratory results from PubChem BioAssay AID316 (DTP/NCI, 2004).
# Where “and” joins values, the source holds several entries; their conditions need not be identical. Equal values may be shown once. Inconclusive results and toxic doses are left out.
# System: P1534 leukemia ip, CD2F1 mice, survival T/C
# Experiment: NCI In Vivo Anticancer Drug Screen. Data for tumor model P1534 Leukemia (intraperitoneal) in CD2F1 (CDF1) mice
# Conditions: endpoint: mean survival time, higher = longer survival
# Method: The antitumor activity of compounds was measured in mice bearing transplantable tumors. Survival or tumor size were measured and the results are expressed as the measurement made in the treated group (T) divided by the measurement made in the vehicle treated control group (C). The tumor model used in this assay is P1534 Leukemia (intraperitoneal) in CD2F1 (CDF1) mice
# [1] = dose: 32.0 mg/kg/injection, schedule: Q01DX010 (ip), vehicle: saline
# [2] = dose: 64.0 mg/kg/injection, schedule: Q01DX010 (ip), vehicle: saline
# [3] = dose: 12.5 mg/kg/injection, schedule: Q01DX010 (ip), vehicle: saline
# [4] = dose: 25.0 mg/kg/injection, schedule: Q01DX010 (ip), vehicle: saline
# [5] = dose: 50.0 mg/kg/injection, schedule: Q01DX010 (ip), vehicle: saline
# [6] = dose: 100.0 mg/kg/injection, schedule: Q01DX010 (ip), vehicle: saline
# [7] = dose: 1.0 mg/kg/injection, schedule: Q01DX010 (ip), vehicle: saline
# [8] = dose: 1.25 mg/kg/injection, schedule: Q01DX010 (ip), vehicle: saline
# [9] = dose: 2.5 mg/kg/injection, schedule: Q01DX010 (ip), vehicle: saline
# [10] = dose: 200.0 mg/kg/injection, schedule: Q01DX010 (ip), vehicle: saline
# [11] = dose: 400.0 mg/kg/injection, schedule: Q01DX010 (ip), vehicle: saline
# [12] = dose: 300.0 mg/kg/injection, schedule: Q01DX010 (ip), vehicle: saline
# [13] = dose: 125.0 mg/kg/injection, schedule: Q01DX010 (ip), vehicle: saline
# [14] = dose: 1.56 mg/kg/injection, schedule: Q01DX010 (ip), vehicle: saline
# [15] = dose: 3.13 mg/kg/injection, schedule: Q01DX010 (ip), vehicle: saline
# [16] = dose: 6.25 mg/kg/injection, schedule: Q01DX010 (ip), vehicle: saline
# [17] = dose: 15.6 mg/kg/injection, schedule: Q01DX010 (ip), vehicle: saline
# [18] = dose: 31.3 mg/kg/injection, schedule: Q01DX010 (ip), vehicle: saline
# [19] = dose: 62.5 mg/kg/injection, schedule: Q01DX010 (ip), vehicle: saline
# [20] = dose: 0.78 mg/kg/injection, schedule: Q01DX010 (ip), vehicle: saline
smiles,measurement,setting,value
COC(=O)C1=COC(C)C2CN3CCc4c([nH]c5ccccc45)C3CC12 (stereo not drawn),T/C,"dose: 20.0 mg/kg/injection, schedule: Q01DX010 (ip), vehicle: saline",96 % of control
same,T/C,"dose: 40.0 mg/kg/injection, schedule: Q01DX010 (ip), vehicle: saline",93 % of control
same,T/C,"dose: 80.0 mg/kg/injection, schedule: Q01DX010 (ip), vehicle: saline",96 % of control
c1ccc(CNc2ncnc3[nH]ncc23)cc1,T/C,"dose: 8.0 mg/kg/injection, schedule: Q01DX010 (ip), vehicle: saline",100 % of control
same,T/C,"dose: 16.0 mg/kg/injection, schedule: Q01DX010 (ip), vehicle: saline",110 % of control
same,T/C,[1],120 % of control and 90 % of control
same,T/C,[2],105 % of control and 110 % of control
O=C(NCCCCC(NC(=O)OCc1ccccc1)C(=O)NCCCCCCNCCCCCCNC(=O)C(CCCCNC(=O)OCc1ccccc1)NC(=O)OCc1ccccc1)OCc1ccccc1 (stereo not drawn),T/C,[3],107 % of control
same,T/C,[4],114 % of control
same,T/C,[5],114 % of control
COc1ccc(/C=N/NC(N)=S)cc1,T/C,[1],100 % of control
same,T/C,[2],100 % of control
same,T/C,"dose: 128.0 mg/kg/injection, schedule: Q01DX010 (ip), vehicle: saline",100 % of control
same,T/C,"dose: 256.0 mg/kg/injection, schedule: Q01DX010 (ip), vehicle: saline",106 % of control
NCCCC(N)C(=O)NCCCCCCNCCCCCCNC(=O)C(N)CCCN (stereo not drawn),T/C,[3],100 % of control
same,T/C,[4],92 % of control
same,T/C,[5],100 % of control
same,T/C,[6],96 % of control
C=C1c2[nH]c3ccccc3c2CN2CCC1/C(=C/C)C2 (stereo not drawn),T/C,"dose: 0.13 mg/kg/injection, schedule: Q01DX010 (ip), vehicle: saline",96 % of control
same,T/C,"dose: 0.25 mg/kg/injection, schedule: Q01DX010 (ip), vehicle: saline",93 % of control
same,T/C,"dose: 0.5 mg/kg/injection, schedule: Q01DX010 (ip), vehicle: saline",96 % of control
same,T/C,[7],100 % of control
Nc1nc(=S)c2[nH]cnc2[nH]1,T/C,[8],161 % of control and 181 % of control
same,T/C,[9],150 % of control
same,T/C,"dose: 5.0 mg/kg/injection, schedule: Q01DX010 (ip), vehicle: saline",122 % of control
same,T/C,"dose: 10.0 mg/kg/injection, schedule: Q01DX010 (ip), vehicle: saline",105 % of control
O=C(O)CCCc1ccc(N(CCCl)CCCl)cc1,T/C,"dose: 6.25 mg/kg/injection, schedule: Q01DX010 (ip), vehicle: other",114 % of control
same,T/C,"dose: 25.0 mg/kg/injection, schedule: Q01DX010 (ip), vehicle: other",103 % of control
CC1CCC2C(C)C3C(CC4C5CC=C6CC(OC7OC(CO)C(O)C(OC8OC(CO)C(O)C(O)C8O)C7OC7OC(C)C(O)C(O)C7O)CCC6(C)C5CCC43C)N2C1 (stereo not drawn),T/C,[5],96 % of control
same,T/C,[6],100 % of control
same,T/C,[10],96 % of control
same,T/C,[11],92 % of control
COCCOC,T/C,[12],100 % of control
same,T/C,"dose: 450.0 mg/kg/injection, schedule: Q01DX010 (ip), vehicle: saline",107 % of control
same,T/C,"dose: 675.0 mg/kg/injection, schedule: Q01DX010 (ip), vehicle: saline",103 % of control
c1ccc(CCSc2ncnc3nc[nH]c23)cc1,T/C,[13],100 % of control
same,T/C,"dose: 500.0 mg/kg/injection, schedule: Q01DX010 (ip), vehicle: saline",103 % of control
C1CCNC1,T/C,[14],113 % of control
same,T/C,[15],103 % of control
same,T/C,[16],100 % of control
same,T/C,[3],103 % of control and 96 % of control
same,T/C,[4],86 % of control
CN(C)[C@@H]1C(=O)C(C(N)=O)=C(O)[C@@]2(O)C(=O)C3=C(O)c4c(O)cccc4C[C@H]3C[C@@H]12,T/C,"dose: 3.75 mg/kg/injection, schedule: Q01DX010 (ip), vehicle: saline",107 % of control
same,T/C,"dose: 7.5 mg/kg/injection, schedule: Q01DX010 (ip), vehicle: saline",107 % of control
same,T/C,"dose: 15.0 mg/kg/injection, schedule: Q01DX010 (ip), vehicle: saline",100 % of control
same,T/C,"dose: 30.0 mg/kg/injection, schedule: Q01DX010 (ip), vehicle: saline",103 % of control and 100 % of control
CC(O)CCc1ccc(OC(=O)c2ccccc2)cc1 (stereo not drawn),T/C,[5],89 % of control
same,T/C,[6],93 % of control
same,T/C,[10],89 % of control
same,T/C,[11],93 % of control
N[C@@H](Cc1ccc(N(CCCl)CCCl)cc1)C(=O)O,T/C,[8],164 % of control
same,T/C,[9],189 % of control
CCCCCCCCCCCCCCCCC(C(=O)O)C(O)(CC(=O)O)C(=O)O (stereo not drawn),T/C,[4],88 % of control
Clc1[nH]nc2ccccc12,T/C,"dose: 7.8 mg/kg/injection, schedule: Q01DX010 (ip), vehicle: saline",100 % of control
same,T/C,[17],96 % of control
same,T/C,[18],96 % of control
same,T/C,[19],107 % of control and 100 % of control
same,T/C,[13],92 % of control
CC1CCCCN1 (stereo not drawn),T/C,[16],103 % of control
same,T/C,[3],103 % of control
same,T/C,[4],103 % of control
same,T/C,[5],96 % of control
O=C(NCCCCC(NC(=O)c1ccccc1)C(=O)NCCCCCCCCCCNC(=O)C(CCCCNC(=O)c1ccccc1)NC(=O)c1ccccc1)c1ccccc1 (stereo not drawn),T/C,[16],103 % of control
same,T/C,[3],103 % of control
same,T/C,[4],100 % of control
same,T/C,[5],96 % of control
CN(/N=N/N(C)c1ccccc1)c1ccccc1,T/C,[17],115 % of control
same,T/C,[18],103 % of control
same,T/C,[19],111 % of control
same,T/C,[13],100 % of control
COc1cc2c(cc1Oc1c(Oc3c(O)c(OC)cc4c3C(CC(C)C)N(C)CC4)c(OC)cc3c1C(CC(C)C)N(C)CC3)C(CC(C)C)N(C)CC2 (stereo not drawn),T/C,[4],107 % of control
same,T/C,[5],115 % of control
same,T/C,[6],111 % of control
Cc1[nH]ncc1Br,T/C,"dose: 100.0 mg/kg/injection, schedule: Q01DX010 (ip), vehicle: water",95 % of control
same,T/C,"dose: 150.0 mg/kg/injection, schedule: Q01DX010 (ip), vehicle: water",98 % of control
Cc1cc(O)c2cc3c(O)c(O)ccc3cc2c1,T/C,[7],100 % of control
same,T/C,"dose: 2.0 mg/kg/injection, schedule: Q01DX010 (ip), vehicle: saline",103 % of control
C[C@@H](N)[C@@H](O)c1ccccc1,T/C,"dose: 0.39 mg/kg/injection, schedule: Q01DX010 (ip), vehicle: saline",103 % of control
same,T/C,[20],100 % of control
same,T/C,[14],100 % of control
same,T/C,[15],103 % of control
O=c1cccc2n1CC1CNC[C@H]2C1,T/C,[20],100 % of control
same,T/C,[14],100 % of control
same,T/C,[15],103 % of control
same,T/C,[16],100 % of control
O=c1cnn(C2OC(CO)C(O)C2O)c(=O)[nH]1 (stereo not drawn),T/C,[6],105 % of control and 107 % of control
same,T/C,[10],105 % of control and 120 % of control
same,T/C,[12],90 % of control and 94 % of control
same,T/C,[11],103 % of control and 110 % of control
same,T/C,"dose: 700.0 mg/kg/injection, schedule: Q01DX010 (ip), vehicle: saline",86 % of control and 89 % of control
same,T/C,"dose: 800.0 mg/kg/injection, schedule: Q01DX010 (ip), vehicle: saline",93 % of control and 101 % of control
same,T/C,"dose: 1600.0 mg/kg/injection, schedule: Q01DX010 (ip), vehicle: saline",88 % of control
Cc1ccccn1,T/C,[19],96 % of control
same,T/C,[13],100 % of control
same,T/C,"dose: 250.0 mg/kg/injection, schedule: Q01DX010 (ip), vehicle: saline",96 % of control
CNCC(O)(C(=O)O)C(=O)O,T/C,[5],103 % of control
same,T/C,[6],96 % of control
CC1CCC2(NC1)OC1CC3C4CCC5CC(OC6OC(CO)C(OC7OC(CO)C(O)C(OC8OCC(O)C(O)C8O)C7OC7OC(CO)C(O)C(O)C7O)C(O)C6O)CCC5(C)C4CCC3(C)C1C2C (stereo not drawn),T/C,"dose: 5.0 mg/kg/injection, schedule: Q01DX010 (sc), vehicle: steriod suspending solution",100 % of control
same,T/C,"dose: 10.0 mg/kg/injection, schedule: Q01DX010 (sc), vehicle: steriod suspending solution",100 % of control
CC[C@@H](c1ccc(O)cc1)[C@@H](CC)c1ccc(O)cc1,T/C,"dose: 25.0 mg/kg/injection, schedule: Q01DX010 (sc), vehicle: water",100 % of control
same,T/C,"dose: 50.0 mg/kg/injection, schedule: Q01DX010 (sc), vehicle: water",92 % of control
same,T/C,"dose: 100.0 mg/kg/injection, schedule: Q01DX010 (sc), vehicle: water",92 % of control
same,T/C,"dose: 200.0 mg/kg/injection, schedule: Q01DX010 (sc), vehicle: water",92 % of control
